# According to patent US20250134902A1, “DRUG REPURPOSING FOR DELAYED TREATMENT OF ISCHEMIC STROKE” (UNIVESRITY OF NORTH TEXAS HEALTH SCIENCE CENTER, priority 2022, published 2025):
# Entries after “also recorded” stand apart in the source; their conditions may differ.
# Key:
# [1] = Pharmacokinetics of per oral oxeladin in plasma and brain; format: in vivo, rat; details: for time after dosing at which detected in brain / time after dosing at which detected in plasma: rat, 135 mg/kg
# Experimental: Evaluating the pharmacokinetics of Sigma receptor agonists. […] Whole blood was harvested into EDTA coated tubes at 30, 60, 120, 240, 720, and 1440 minutes from rats following euthanasia by CO2 inhalation. Plasma was processed from whole blood by centrifugation for 10 min at 10,000 rpm and frozen at −80° C. until assayed. The brains were collected, weighed, snap frozen in liquid nitrogen, and stored at −80° C. until processed.
# For standards, 98 μl blank plasma was added to an Eppendorf tube spiked with 2 μl of […] (IS). For QCs, add 98.8 μl blank plasma was added to an Eppendorf tube spiked with 1.2 μl of IS. 100 μl plasma was mixed with 200 μl of acetonitrile containing 0.15% formic acid and 37.5 ng/ml IS (IS final conc.=25 ng/ml), and 100 microliters brain homogenized solution was mixed with 200 microliters of acetonitrile containing 0.15% formic acid and 60 ng/ml IS (IS final conc.=40 ng/ml). The samples were vortexed 15 sec, incubated at room temp for 10 min and spun 2×13,200 rpm in a standard microcentrifuge. The supernatant was then analyzed by LC/MS/MS (QTRAP® 3200) according to the following parameters:
# Ion Source/Gas Parameters: CUR=25, CAD=medium, IS=5000, TEM=700, GS1=70, GS2=70.
# Buffer A: Water+0.1% formic acid; Buffer B: ACN+0.1% formic acid; flow rate 1.5 ml/min; column Agilent Eclipse XDB-C18 column, 5 micron packing 50×4.6 mm size; 0-1.5 min 3% B, 1.5-2.0 min gradient to 100% B, 2.0-3.5 min 100% B, 3.5-3.6 min gradient to 3% B, 3.6-4.5 3% B. IS: n-benzylbenzamide (Sigma-Aldrich, lot #02914LH, in ACN, transition 212.1 to 91.1); Compound transition 336.127/100.1.
# [2] = tested on: rat model of focal cerebral ischemia (tMCAO); assay: BrdU cell proliferation in the brain after tMCAO; format: in vivo
# Experimental: Two days before tMCAO rats were trained to lick 5% sucrose from a 1 ml syringe. After behavioral assessment on Day 1 after tMCAO, rats were randomly assigned to 4 groups in a blinded fashion. Groups included sucrose Vehicle, or 45, 68 or 135 mg/kg oxeladin. Oxeladin was prepared in 5% sucrose and provided to rats from the end of a 1 ml syringe. Starting 48 hours after stroke, rats were administered treatments daily from day 3 to day 14. On days 3-14 rats were injected i.p. with 50 mg/kg bromodeoxyuridine (BrdU; Fisher Bioreagents). At the conclusion of the study, rats were euthanized under deep isoflurane anesthesia. Rats were transcardially perfused with cold saline and either decapitated for brain collection and flash freezing of brain tissue or transcardially perfused with 4% formaldehyde for immunohistochemical studies.
# Actions of oxeladin on proliferation in the brain. Fourteen days after tMCAO, rats were transcardially perfused with saline and 4% formaldehyde, as described above. Brains were removed and post-fixed for 48 hours in 4% formaldehyde and then moved to phosphate buffer. Brains were blocked and serial […] coronal sections through the subventricular zone (SVZ) and dorsal hippocampus (HP) were made with a cryostat. Sections were affixed to glass slides and stored at −20° C. until processed. Sections were subjected to antigen retrieval with 10 mM sodium citrate (pH 6.0). Slides were immersed in preheated buffer, placed in a commercial vegetable steamer at 99° C. for 15 minutes and allowed to cool before processing. Immunohistochemistry was performed for the detection of BrdU with a monoclonal primary antibody (Cell Signaling Technology #5292S, 1:5000), followed by a biotinylated secondary antibody (Jackson Immuno Research #715066151, 1:400). […] In the striatum and cortex, the percent area containing BrdU positive cells was assessed in wide-field images captured with a 4× objective using a Keyence BZ-X800 as described above. In the dentate gyrus, individual BrdU+ cells were counted by a treatment-blinded observer in 3 sections per rat (n=6/group). In the SVZ, BrdU+ staining was assessed by a treatment-blinded observer using NEUROLUCIDA® software (Microbrightfield) to map positive cells on the ischemic side (n=4-6).
# [3] = 135 mg/kg p.o., listed as oxeladin
# [4] = 135 mg/kg starting 48 hours after tMCAO, 14-15 days after tMCAO, vs vehicle
compound,measurement,setting,value
CCN(CC)CCOCCOC(=O)C(CC)(CC)c1ccccc1 [Oxeladin],"half-life, brain","[1]; rat brain, 135 mg/kg oral gavage (figure legend)",greater than 4 hours
same,"AUClast, brain","[1]; rat brain, 135 mg/kg p.o.",423726 ng·min/g
same,"Terminal T1/2 (terminal elimination half-life), brain","[1]; rat brain, 135 mg/kg p.o.",5.32 h
same,"Tmax (time to obtain maximum concentration), brain","[1]; rat brain, 135 mg/kg p.o.",0.5 h
same,"half-life, plasma","[1]; rat plasma, 135 mg/kg oral gavage (figure legend)",greater than 4 hours
same,"AUClast, plasma","[1]; rat plasma, 135 mg/kg p.o.",122293 ng·min/mL
same,"Terminal T1/2 (terminal elimination half-life), plasma","[1]; rat plasma, 135 mg/kg p.o.",4.15 h
same,"Tmax (time to obtain maximum concentration), plasma","[1]; rat plasma, 135 mg/kg p.o.",0.5 h
same,time after dosing at which detected in brain,[1]; 135 mg/kg p.o.,≤ 30 min
same,time after dosing at which detected in plasma,[1]; 135 mg/kg p.o.,≤ 30 min
same,time after dosing at which detected in brain,[1]; [3],30 min
same,time after dosing at which detected in plasma,[1]; [3],30 min
same,BrdU staining (area of BrdU+ cells) in the cerebral cortex,[2]; [4],significantly smaller area; also recorded: significantly reduced
same,BrdU staining in the striatum,[2]; [4],did not alter BrdU staining
same,"BrdU positive cells in the subventricular zone (SVZ), infarcted hemisphere","[2]; 135 mg/kg, 14-15 days after tMCAO, vs vehicle",no differences in BrdU+ cells between treatment groups; also recorded: did not reveal a significant difference
same,cell proliferation in the brain or SVZ after tMCAO,[2]; overall conclusion,does not enhance cell proliferation
